Measurements from patent US20240117303A1, “METHODS AND COMPOSITIONS FOR GENERATING HUMAN MIDBRAIN DOPAMINERGIC NEURONS FROM NEURAL PROGENITOR CELLS” (Trailhead Biosystems Inc., priority 2022, published 2024).

What was measured:
[1] = system: stage 2 neural progenitors; assay: HD-DoE 12-factor model for stage 3 recipe (FIG. 19-23, 29); assay type: cell-based, human
stage 3 immature neurons = assay: HD-DoE 8-factor experiment for stage 4 recipe (FIG. 27, 28, 31); assay type: cell-based, human
Procedure, shortened: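 Stage 3 cells treated 4 days with combinatorial matrices including CHIR99021, BDNF, GDNF, Rosiglitazone, GW7647, DBZ and heparin, then gene expression (NR4A2, PITX3, TH) measured. Dropout tests removed each of six finalized factors singly, comparing NR4A2 and PITX3 against the full set.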

[2] = system: human pluripotent stem cells; assay: HD-DoE 13-factor experiment for stage 1 recipe, gene expression modeled after 3-day treatment; dynamic profile and factor criticality analysis; assay type: cell-based
Procedure, shortened: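 Human pluripotent stem cells given 13-factor effector combinations (e.g. LDN193189, CHIR99021, PD0325901) for 3 days; expression of 53 preselected genes modeled, focusing on OTX2, DMBX1, FOXA2, LMX1A and GBX2. Factor criticality assessed by removing each of five finalized factors and comparing with all five present.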

Cc1c[nH]c(-c2cnc(NCCNc3ccc(C#N)cn3)nc2-c2ccc(Cl)cc2Cl)n1 [CHIR99021]
impact on expression of KCNJ6 ([1]; dynamic profile, 12 effectors): positive impact | factor contribution ([1]; model maximizing expression of CORIN, negative impact): 10.9 | factor contribution ([1]; model optimized for maximum expression of KCNJ6, positive regulators): 10.7 | expression level of KCNJ6 in absence of the factor ([1]; stage 3 recipe, other factors present, 50 with all factors): 50 | expression level of SOX6 in absence of the factor ([1]; stage 3 recipe, other factors present, 105 with all factors): 125 | expression level of MSX1 in absence of the factor ([1]; stage 3 recipe, other factors present, 140 with all factors): 115 | expression level of CORIN in absence of the factor ([1]; stage 3 recipe, other factors present, 900 with all factors): 1200 | impact on expression level of PITX3 (stage 3 immature neurons; dynamic profile, 8 effectors): did not have a meaningful effect | factor contribution (stage 3 immature neurons; model maximized for NR4A2, negative impact): 20.7 | impact on expression of FOXA2 ([2]; dynamic profile, 13 effectors): positive impact | impact on expression of OTX2 ([2]; dynamic profile, 13 effectors): positive impact | factor contribution ([2]; model optimized for maximum expression of FOXA2, positive effect): 15.6 | factor contribution ([2]; model optimized for maximum expression of OTX2, positive impact, 3-day treatment): 13.5 | expression level of LMX1A in absence of the factor ([2]; stage 1 recipe, other four factors present, 300 with all five factors): reduced | expression level of FOXA2 in absence of the factor ([2]; stage 1 recipe, other four factors present, 600 with all five factors): reduced | expression level of DMBX1 in absence of the factor ([2]; stage 1 recipe, other four factors present, 3000 with all five factors): reduced | expression level of OTX2 in absence of the factor ([2]; stage 1 recipe, other four factors present, 12000 with all five factors): reduced
